Laboratory results as given in patent US9187539B2, “Compositions having antiangiogenic activity and uses thereof” (The Johns Hopkins University, priority 2005, dated 2015).
Entries after “also recorded” stand apart in the source; their conditions may differ.

Key:
[1] = system: human umbilical vein endothelial cells (HUVECs); assay: HUVEC proliferation assay (WST-1), 2- and 4-day, 5,000 cells per well; type: cell-based; settings: for concentration-response profile in words: 2- and/or 4-day assay
Method: The effect of the various peptides on cell proliferation was assayed, by administering the peptides to human umbilical vein endothelial cells (HUVECs) in culture. 45 peptides belonging to four distinct families of proteins including the thrombospondin-1 containing proteins, the C-X-C chemokines, collagen derived peptides and peptides from tissue inhibitors of metalloproteinases were tested. The potency of each of the peptides was tested using the proliferation assay at 2 days and 4 days following administration of the peptides and a similar assay using a different cell density at 3 days. In the four-day experiments, the cell medium was changed after the second day of incubation and the peptide was replaced at the initial concentration together with the medium. TNP-470 is an antiangiogenic compound that was used as a positive control for assessing anti-angiogenic efficacy. The activity of each polypeptide was, therefore, expressed as a percentage of TNP-470 activity, i.e., the optical density obtained experimentally is scaled such that the negative control is 0% and the positive control is 100% as explained below (FIG. 4). Each plate included a well having HUVEC cells that received 0.1 μg/ml TNP-470. For example, a peptide having the same effect on endothelial cell proliferation would have 100% of the activity of TNP-470. Note that activity could exceed 100%. In this assay, the effects of the predicted anti-angiogenic fragments on the ability of HUVECs to proliferate was characterized. […] A commonly used methodology to test for proliferation is to monitor the viability and metabolic activity of endothelial cells, in the presence of the anti-angiogenic fragments at different concentrations and various time steps. The cell proliferation reagent WST-1 was used as a substrate/assay to measure the metabolic activity of viable cells. WST-1 is a colorimetric, non-radioactive assay and can be performed in a microplate. It is suitable for measuring cell proliferation, cell viability or cytotoxicity. The assay is based on the reduction a red tetrazolium salt, WST-1, by viable, metabolically active, cells to form the yellow formazan crystals soluble in the cell medium. […] The cells are cultured described above. Once cells have reached 80% confluence they are trypsinized and resuspended in EGM-2. The cell density is estimated using a hemocytometer. All of the endothelial cells used were from passage 4 to passage 8. The proliferation assay involved two steps. During the first step the cells, approximately 5,000 cells per well for a 96-well plate, were seeded without any extracellular matrix substrate on the wells overnight (8 hours). The initial cell culture medium was removed using a multichannel pipetor and the candidate peptides were applied. A logarithmic scale of four different concentrations of 0.01 μg/ml, 0.1 μg/ml, 1 μg/ml and 10 μg/ml of each peptide was used. Each of the concentrations was tested in quadruplicate. The viability of the cells was challenged at 2 and 4 days upon the application of the peptide. As a positive control for decreased viability, 0.1 μg/ml of TNP-470 (O-(chloro-acetyl-carbamoyl) fumagillol, a synthetic analogue of fumagillin; TNP-470 was provided by NCI, was provided along with the medium, and as a negative control for normal viability, the cells were cultured without the addition of any agent. The cells were then incubated with 10 μl per well of the red WST-1 reagent for approximately 2 to 4 hours. During this incubation period, viable cells converted, in their mitochondria, the red WST-1 to the yellow formazan crystals which dissolve in the medium. The second step of the assay involved the quantification of the changes in proliferation which was performed by measuring the change in color after lysing the cells. The samples were read using the ELISA plate reader Victor3 V (Perkin Elmer) at a wavelength of […]. The amount of color produced is directly proportional to the number of viable cells. […]

[2] = system: human umbilical vein endothelial cells (HUVECs); assay: HUVEC proliferation assay (WST-1), 3-day, 2,000 cells per well; type: cell-based; settings: 3-day assay; for anti-proliferative activity in words: overall; for anti-proliferative activity (maximum or stated level), scaled so that TNP-470 = 100%: 0.01-30 μg/ml; for anti-proliferative activity in words at high peptide concentration: high/highest applied concentration (30 μg/ml where stated)
Method: In addition to the 2 and 4 day proliferation experiment where 5,000 cells per well were seeded, the effects of the peptides on the proliferating ability of HUVECs were also studied using cells seeded at a density of 2,000 cells per well. This lower cell seeding density allowed the experiment to be extend for an additional day without changing the cell medium. The effects of the peptides when applied to the cells for 3 consecutive days is also reported herein. The proliferation assay again involved two steps. During the first step 2,000 cells per well for a 96-well plate were seeded without any extracellular matrix substrate on the wells overnight (8 hours). The initial cell culture medium was removed using a multichannel pipetor. To synchronize the cells, the cells were serum starved for 4 hours and the candidate peptides were applied. During serum starvation the cell culture medium was changed from a “full” medium to the “basal” medium, which contained no growth factors or serum. Serum starvation for 4 hours had no effect on the proliferation of the cells. For this assay, the logarithmic scale of four different concentrations of 0.01 μg/ml, 0.1 μg/ml, 1 μg/ml and 10 μg/ml of peptide was used. In addition, a larger concentration of 30 μg/ml peptide was also applied. Each of the concentrations was again tested in quadruplicate. After the third day of peptide application the WST-1 dye was applied for approximately 2 to 4 hours (usually after 3 hours the color saturates). The proliferation was later tested on the ELISA plate reader as described for the 2 and 4 day assay. Note that the 2- and 4-day and the 3-day protocols differed in that 5,000 cells/well versus 2,000 cells/well seeded, respectively.

[3] = 4 days of peptide application, 0.01-10 μg/ml
[4] = 10 μg/ml peptide, 2- and 4-day assay
[5] = 2- and 4-day assay, day not specified or constant throughout the four days
[6] = 2 days of peptide application, 0.01-10 μg/ml
[7] = 2- and 4-day assay, day not specified

Sequence: AAPFLECQGRQGTCHFFAN [SEQ ID NO: 87, α4CIV CAA56943.1: 1628-1646]
- anti-proliferative activity in words ([1]; 2 days of peptide application): intermediate activity
- concentration-response profile in words [2]: activity increased with increasing the applied peptide concentration
- anti-proliferative activity in words [2]: similar

Sequence: ASWSACSVSCGGGARQRTR [SEQ ID NO: 45, Fibulin-6 CAC37630.1: 1745-1763]
- concentration-response profile in words [1]: biphasic activity
- peptide concentration at which maximum activity was observed ([1]; 2 days): 0.1 µg/mL
- anti-proliferative activity (maximum or stated level), scaled so that TNP-470 = 100% [1, 3]: approximately 30%
- concentration-response profile in words [2]: biphasic response
- peptide concentration at which maximum activity was observed [2]: 0.1 µg/mL
- anti-proliferative activity (maximum or stated level), scaled so that TNP-470 = 100% [2]: 20%

Sequence: DGRELCLDPKENWVQRVVEKFLK [SEQ ID NO: 110, IL-8/CXCL8 AAP35730.1: 72-94]
- anti-proliferative activity, TNP-470 = 100% [1, 4]: 20%
- anti-proliferative activity in words at high peptide concentration [2]: higher

Sequence: DGRKICLDPDAPRIKKIVQKKL [SEQ ID NO: 114, THBG-β/CXCL7 AAB46877.1: 100-121]
- anti-proliferative activity, TNP-470 = 100% [1, 4]: 15%

Sequence: ECLWTDMLSNFGYPGYQSKHYACI [SEQ ID NO: 155, TIMP 3 AAA21815.1: 148-171]
- anti-proliferative activity (maximum or stated level), scaled so that TNP-470 = 100% [1, 5]: 30%
- anti-proliferative activity (maximum or stated level), scaled so that TNP-470 = 100% [1, 6]: 30%

Sequence: GPWAPCSASCGGGSQSRS [SEQ ID NO: 48, Papilin NP_775733.2: 342-359]
- anti-proliferative activity (maximum or stated level), scaled so that TNP-470 = 100% [1, 5]: 30%

Sequence: GPWEDCSVSCGGGEQLRSR [SEQ ID NO: 63, SCO-spondin XP_379967.2: 3781-3799]
- anti-proliferative activity (maximum or stated level), scaled so that TNP-470 = 100% [1, 5]: ~15%
- anti-proliferative activity in words ([1]; 2- and 4-day assay, overall): low anti-proliferative activity
- anti-proliferative activity (maximum or stated level), scaled so that TNP-470 = 100% [2]: 25%

Sequence: GPWEPCSVTCSKGTRTRRR [SEQ ID NO: 49, Properdin AAP43692.1: 143-161]
- peptide concentration at which maximum activity was observed [1, 7]: 0.01 µg/mL
- anti-proliferative activity (maximum or stated level), scaled so that TNP-470 = 100% [1, 5]: 30%
- concentration-response profile in words [1]: biphasic response
- anti-proliferative activity (maximum or stated level), scaled so that TNP-470 = 100% [1, 3]: 20%
- anti-proliferative activity in words at high peptide concentration [2]: significantly increased

Sequence: GPWERCTAQCGGGIQARRR [SEQ ID NO: 60, Semaphorin 5A NP_003957.1: 660-678]
- peptide concentration at which maximum activity was observed [1, 7]: higher than 1 μg/ml
- anti-proliferative activity (maximum or stated level), scaled so that TNP-470 = 100% [1, 5]: 25%
- anti-proliferative activity in words ([1]; 2 days of peptide application): minimum anti-proliferative activity
- anti-proliferative activity in words ([1]; 4 days of peptide application): intermediate activity
- anti-proliferative activity (maximum or stated level), scaled so that TNP-470 = 100% [2]: 35%

Sequence: GPWGDCSRTCGGGVQFSSR [SEQ ID NO: 7, ADAMTS-4 CAH72146.1: 527-545]
- peptide concentration at which maximum activity was observed ([1]; 4 days): 10 µg/mL
- anti-proliferative activity (maximum or stated level), scaled so that TNP-470 = 100% [1, 3]: 35%

Sequence: GPWGECSRTCGGGVQFSHR [SEQ ID NO: 14, ADAMTS-8 Q9UP79: 534-552]
- anti-proliferative activity in words at 10 μg/ml [1, 4]: reduced
- concentration-response profile in words [1]: biphasic response
- peptide concentration at which maximum activity was observed ([1]; 2 days): 1 µg/mL
- anti-proliferative activity (maximum or stated level), scaled so that TNP-470 = 100% [1, 6]: 35%
- peptide concentration at which maximum activity was observed ([1]; 4 days): 1 µg/mL
- anti-proliferative activity (maximum or stated level), scaled so that TNP-470 = 100% [1, 3]: 30%
- concentration-response profile in words [2]: biphasic response

Sequence: KCHGHGVCNSNKN [SEQ ID NO: 1, ADAM-9 Q13443: 649-661]
- anti-proliferative activity (maximum or stated level), scaled so that TNP-470 = 100% [1, 5]: ~20%

Sequence: LCMTKSDCYQPAWYIHEGFYNLSG [SEQ ID NO: 159, reference compound]
- anti-proliferative activity in words ([1]; 2- and 4-day assay, overall): not statistically significant

Sequence: LRRFSTMPFMFCNINNVCNF [SEQ ID NO: 89, α5CIV AAC27816.1: 1510-1529]
- anti-proliferative activity, TNP-470 = 100% [1, 4]: 80%
- anti-proliferative activity in words at high peptide concentration [2]: increased even more
- anti-proliferative activity in words [2]: reproducible

Sequence: MQCHGRGVCNNRKN [SEQ ID NO: 2, ADAM-12 O43184: 662-675]
- anti-proliferative activity in words ([1]; 2 days of peptide application): showed activity
- concentration-response profile in words [2]: activity increasing as the peptide concentration increased

Sequence: NGKEICLDPEAPFLKKVIQKILD [SEQ ID NO: 95, ENA-78/CXCL5 AAP35453.1: 86-108]
- anti-proliferative activity, TNP-470 = 100% ([1]; 0.01 μg/ml peptide, 2 days): approximately 30%
- anti-proliferative activity in words at high peptide concentration [2]: high activity
- anti-proliferative activity in words [2]: reproducible over all tested concentrations

Sequence: NGKKACLNPASPMVQKIIEKIL [SEQ ID NO: 106, GRO-γ/MIP-2β/CXCL3 AAA63184.1: 79-100]
- peptide concentration at which maximum activity was observed [1, 7]: 0.01 µg/mL
- anti-proliferative activity (maximum or stated level), scaled so that TNP-470 = 100% [1, 3]: 15%
- peptide concentration at which maximum activity was observed [2]: 0.01 µg/mL

Sequence: NGKQVCLDPEAPFLKKVIQKILDS [SEQ ID NO: 98, GCP-2/CXCL6 AAH13744.1: 86-109]
- anti-proliferative activity, TNP-470 = 100% ([1]; 0.01 μg/ml peptide, 2 days): 30%
- anti-proliferative activity in words at 10 μg/ml [1, 4]: Virtually no anti-proliferative activity
- anti-proliferative activity (maximum or stated level), scaled so that TNP-470 = 100% [1, 5]: 35%
- concentration-response profile in words [1]: biphasic behavior; also recorded: biphasic response
- concentration-response profile in words [2]: biphasic behavior
- anti-proliferative activity in words at high peptide concentration [2]: increased

Sequence: QDVFNKDGKVILLSPQAICLPKEK [SEQ ID NO: 158, reference compound]
- anti-proliferative activity in words ([1]; 2- and 4-day assay, overall): not statistically significant

Sequence: SPWTKCSATCGGGHYMRTR [SEQ ID NO: 61, Semaphorin 5A NP_003957.1: 848-866]
- anti-proliferative activity in words ([1]; 2- and 4-day assay, overall): no anti-proliferative activity

Sequence: SQWSPCSRTCGGGVSFRER [SEQ ID NO: 47, Papilin NP_775733.2: 33-51]
- anti-proliferative activity in words ([1]; 2- and 4-day assay, overall): minimal anti-proliferative activity

Sequence: TSWSPCSASCGGGHYQRTR [SEQ ID NO: 62, Semaphorin 5B AAQ88491.1: 916-934]
- anti-proliferative activity (maximum or stated level), scaled so that TNP-470 = 100% [1, 5]: 10%
